For this data set the following is noted: from C=C[C@@H]1OC(c2ccc(OC)cc2)O[C@]1(C)CC[C@H](CC(=O)O[C@H](/C(C)=C/I)[C@@H](C)C=C)O[Si](C)(C)C(C)(C)C; rcm bond; Hoveyda-Grubbs 2nd generation; toluene; 6.52 mM; 110.0 °C; 5.0 h.

Structures are written as SMILES.

As for `COc1ccc(C2O[C@H]3C=C[C@H](C)[C@@H](/C(C)=C/I)OC(=O)C[C@H](O[Si](C)(C)C(C)(C)C)CC[C@@]3(C)O2)cc1` (stereo partly shown), the ring closure, yield of all isomers worked out at 50%.
